In PMC8192494 (European journal of medicinal chemistry, 2021):
Several values for one entry are separate records, joined by “and”; a condition that tells them apart may be missing. Equal entries are not always repeated.

Assays:
[1] = target: isolated recombinant CYP3A4 (Homo sapiens, UniProt P08684); experiment: Equilibrium ligand binding to CYP3A4; details: for high spin: high spin content of ligand-bound CYP3A4, mean of three ± SD; for Kd, fold lower than for 14β: relative to 14β
[2] = test system: TS-induced growth of LNCaP (AR+) PCa cells; experiment: Inhibition of testosterone-induced cell proliferation of LNCaP PCa cells; assay type: cell-based, human; details: 48 h; for reduction relative to the proliferative response induced by 0.1 nM TS: 1 μM dimer
[3] = test system: DHT-induced growth of LNCaP (AR+) PCa cells; experiment: Inhibition of dihydrotestosterone-induced cell proliferation of LNCaP PCa cells; details: 0.1 nM DHT, 48 h; for inhibition of growth induced by DHT: 0.125 μM dimer
[4] = test system: LNCaP (AR+) androgen-sensitive human prostate adenocarcinoma cells; experiment: MTT antiproliferative activity assay on LNCaP cells; assay type: cell-based; details: relative to cyproterone acetate
[5] = test system: PC3 (AR−) androgen-insensitive human prostate adenocarcinoma cells; experiment: MTT antiproliferative activity assay on PC3 cells; assay type: cell-based; details: read-out: IC50 PC3 (AR−), 48 h, concentration inhibiting cell growth by 50%
[6] = test system: LNCaP, PC3 and DU145 prostate cancer cells; experiment: MTT antiproliferative activity, summarised over the three PCa cell lines; assay type: cell-based; details: Homo sapiens, read-out: IC50 range on different cell lines
PC3 (AR−) PCa cells = details: read-out: IC50 PC3 (AR−); MTT antiproliferative assay; cited from earlier work
LNCaP (AR+) PCa cells = details: read-out: IC50 LNCaP (AR+); MTT antiproliferative assay; cited from earlier work

isolated recombinant CYP3A4, sequence (P08684 whole entry): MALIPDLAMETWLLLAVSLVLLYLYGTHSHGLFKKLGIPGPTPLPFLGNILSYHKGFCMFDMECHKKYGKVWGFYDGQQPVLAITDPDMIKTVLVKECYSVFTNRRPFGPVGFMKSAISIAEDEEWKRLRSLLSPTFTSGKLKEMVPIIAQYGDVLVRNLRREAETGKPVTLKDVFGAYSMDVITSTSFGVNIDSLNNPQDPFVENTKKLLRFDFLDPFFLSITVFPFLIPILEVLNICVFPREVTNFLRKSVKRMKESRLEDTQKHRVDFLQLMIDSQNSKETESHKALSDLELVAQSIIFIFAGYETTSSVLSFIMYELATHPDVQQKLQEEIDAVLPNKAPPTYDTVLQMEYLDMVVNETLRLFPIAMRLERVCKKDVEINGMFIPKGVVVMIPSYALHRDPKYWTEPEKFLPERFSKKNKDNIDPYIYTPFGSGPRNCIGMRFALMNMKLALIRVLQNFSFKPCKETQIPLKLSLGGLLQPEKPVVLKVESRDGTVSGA

C[C@]12CC[C@H]3[C@@H]([C@H](/C=C/C=C/C=C/[C@@H]4CC5=CC(=O)CC[C@]5(C)[C@H]5CC[C@]6(C)[C@H](O)CC[C@H]6[C@H]45)CC4=CC(=O)CC[C@@]43C)[C@@H]1CC[C@H]2O (relative stereo) [Compound 14α, trans, trans,trans-1,6-bis-(17α-hydroxy-4-androsten-3-one-7α-yl)hexatriene]
high spin [1]: 46 ± 3%
Kd, fold lower than for 14β [1]: ~ 4 fold
concentration at which 100% effective against TS-induced cell proliferation ([2]; 0.1 nM TS): 0.25 µM
reduction relative to the proliferative response induced by 0.1 nM TS [2]: ~ 141%
concentration at which 100% effective against DHT-induced cell proliferation [3]: 1 µM
inhibition of growth induced by DHT [3]: at least 45%

C[C@]12CC[C@H]3[C@@H]([C@H](/C=C/C=C/C=C/[C@@H]4CC5=CC(=O)CC[C@]5(C)[C@H]5CC[C@]6(C)[C@@H](O)CC[C@H]6[C@H]45)CC4=CC(=O)CC[C@@]43C)[C@@H]1CC[C@@H]2O (relative stereo) [Compound 14β, trans, trans,trans-1,6-bis-(17β-hydroxy-4-androsten-3-one-7α-yl)hexatriene]
times more active than CPA (IC50 ratio) [4]: ~ 5 times
high spin [1]: 49 ± 3%
concentration at which 100% effective against TS-induced cell proliferation ([2]; 0.1 nM TS): 0.5 µM
inhibition of growth induced by TS ([2]; 0.125 μM dimer, 0.1 nM TS): at least 45%
reduction relative to the proliferative response induced by 0.1 nM TS [2]: 104%
concentration at which 100% effective against DHT-induced cell proliferation [3]: 1 µM
inhibition of growth induced by DHT [3]: at least 45%

C=CC=C[C@@H]1CC2=CC(=O)CC[C@]2(C)[C@H]2CC[C@]3(C)[C@H](O)CC[C@H]3[C@H]12 [Compound 13α, 7α-(buta-1,3-dienyl)-4-androsten-17α-ol-3-one]
times more active than CPA (IC50 ratio) [4]: about 4 times
IC50 [5]: 31.5 µM

C=CC=C[C@@H]1CC2=CC(=O)CC[C@]2(C)[C@H]2CC[C@]3(C)[C@@H](O)CC[C@H]3[C@H]12 [Compound 13β, 7α-(buta-1,3-dienyl)-4-androsten-17β-ol-3-one]
IC50 [5]: 34.1 µM

C[C@]12CCC(=O)C=C1C[C@@H](/C=C/C=C/C=C/[C@@H]1CC3=CC(=O)CC[C@]3(C)[C@H]3CC[C@]4(C)C(=O)CC[C@H]4[C@H]13)[C@@H]1[C@@H]2CC[C@]2(C)C(=O)CC[C@@H]12 [Compound 14, trans, trans,trans-1,6-bis-(4-androsten-3,17-dione-7α-yl)hexatriene]
high spin [1]: 36 ± 2%
Kd, fold lower than for 14β [1]: ~ 4 fold
IC50 [6]: 29 to 72.7 µM

C[C@]12CC[C@H]3[C@@H]([C@H]([C@H]4C=CC[C@H]5C(=O)OC(=O)[C@@H]45)CC4=CC(=O)CC[C@@]43C)[C@@H]1CC[C@@H]2O [Compound 15, 4-(17β-hydroxy-4-androsten-3-one-7α-yl)-3a,4,7,7a-tetrahydro-isobenzofuran-1,3-dione]
IC50 [6]: 62.5 to 131 µM

C[C@]12CC[C@H]3[C@@H]([C@H](C/C=C\C[C@@H]4CC5=CC(=O)CC[C@]5(C)[C@H]5CC[C@]6(C)[C@@H](O)CC[C@H]6[C@H]45)CC4=CC(=O)CC[C@@]43C)[C@@H]1CC[C@@H]2O [cis-10]
high spin [1]: 99 ± 1%
IC50 (PC3 (AR−) PCa cells): 24.7 µM
IC50 (LNCaP (AR+) PCa cells): 30.3 µM

C[C@]12CC[C@H]3[C@@H]([C@H](C/C=C/C[C@@H]4CC5=CC(=O)CC[C@]5(C)[C@H]5CC[C@]6(C)[C@@H](O)CC[C@H]6[C@H]45)CC4=CC(=O)CC[C@@]43C)[C@@H]1CC[C@@H]2O [trans-10, reference compound]
high spin [1]: 65% and 65 ± 4%
